# Measurements: patent US20100267561A1, “HERBICIDAL PYRIDAZINONE DERIVATIVES” (priority 2007, published 2010)
# Tests used:
# Assay type in all cases: in vivo
# [1] = test system: itchgrass (Rottboellia cochinchinensis); test: Test E pre-/postemergence plant response; details: Postemergence, scale 0 to 100
# Excerpt: (§1) Seeds of plant species selected from bermudagrass (Cynodon dactylon), Surinam grass (Brachiaria decumbens), large crabgrass (Digitaria sanguinalis), green foxtail (Setaria viridis), goosegrass (Eleusine indica), johnsongrass (Sorghum halepense), kochia (Kochia scoparia), pitted morningglory (Ipomoea lacunosa), purple nutsedge (Cyperus rotundus), common ragweed (Ambrosia elation), black mustard (Brassica nigra), guineagrass (Panicum maximum), dallisgrass (Paspalum dilatatum), barnyardgrass (Echinochloa crus-galli), southern (S.) sandbur (Cenchrus echinatus), common sowthistle (Sonchus oleraceous), prickly sida (Sida spinosa), Italian ryegrass (Lolium multiflorum), common purslane (Portulaca oleracea), broadleaf signalgrass (Brachiaria platyphylla), common groundsel (Senecio vulgaris), common chickweed (Stellaria media), Virginia (V.) dayflower (Commelina virginica), tropical (T.) spiderwort (Commelina benghalensis), annual bluegrass (Poa annua), naked crabgrass (Digitaria nuda), itchgrass (Rottboellia cochinchinensis), quackgrass (Elytrigia repens), Canada horseweed (Conyza canadensis), field bindweed (Convolvulus arvensis), spanishneedles (Bidens bipinnata), common mallow (Malva sylvestris) and Russian thistle (Salsola kali) were planted and treated preemergence with test chemicals formulated in a non-phytotoxic solvent mixture which included a surfactant. At the same time, plants selected from these weed species were treated with postemergence applications of some of the test chemicals formulated in the same manner. Plants ranged in height from 2 to 18 cm (1- to 4-leaf stage) for postemergence treatments.
# (§2) Treated plants and controls were maintained in a greenhouse for 14 to 21 days, after which time all species were compared to controls and visually evaluated. Plant response ratings, summarized in Table E, are based on a scale of 0 to 100 where 0 is no effect and 100 is complete control. A dash (-) response means no test result.
# [2] = test system: common groundsel (Senecio vulgaris); test: Test E pre-/postemergence plant response; details: Postemergence, scale 0 to 100
# Excerpt: as §1, §2
# [3] = test system: black mustard (Brassica nigra); test: Test E pre-/postemergence plant response; details: Postemergence, scale 0 to 100
# Excerpt: as §1, §2
# [4] = test system: naked crabgrass (Digitaria nuda); test: Test E pre-/postemergence plant response; details: Postemergence, scale 0 to 100
# Excerpt: as §1, §2
# [5] = test system: bermudagrass (Cynodon dactylon); test: Test E pre-/postemergence plant response; details: Postemergence, scale 0 to 100
# Excerpt: as §1, §2
# [6] = test system: purple nutsedge (Cyperus rotundus); test: Test E pre-/postemergence plant response; details: Postemergence, scale 0 to 100
# Excerpt: as §1, §2
# [7] = test system: common purslane (Portulaca oleracea); test: Test E pre-/postemergence plant response; details: Postemergence, scale 0 to 100
# Excerpt: as §1, §2
# [8] = test system: goosegrass (Eleusine indica); test: Test E pre-/postemergence plant response; details: Postemergence, scale 0 to 100
# Excerpt: as §1, §2
# [9] = test system: southern (S.) sandbur (Cenchrus echinatus); test: Test E pre-/postemergence plant response; details: Postemergence, scale 0 to 100
# Excerpt: as §1, §2
# [10] = test system: annual bluegrass (Poa annua); test: Test E pre-/postemergence plant response; details: Postemergence, scale 0 to 100
# Excerpt: as §1, §2
# [11] = test system: spring wheat (Triticum aestivum); test: Test C pre-/postemergence plant response; details: Preemergence
# Method in brief: (§3)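 Plant response was judged by eye against untreated controls following 15 to 25 days in a controlled growth environment, using 0 for no effect and 100 for complete control. Treatments were made both preemergence and postemergence, the latter on plants of 1- to 4-leaf stage.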
# [12] = test system: pigweed (Amaranthus retroflexus); test: Test C pre-/postemergence plant response; details: Preemergence
# Method in brief: as §3
# [13] = 8 g ai/ha, scale 0 to 100 (0 no effect, 100 complete control)
# [14] = 16 g ai/ha, scale 0 to 100 (0 no effect, 100 complete control)
# [15] = 31 g ai/ha, scale 0 to 100 (0 no effect, 100 complete control)
# [16] = 62 g ai/ha, scale 0 to 100, 0 no effect, 100 complete control
smiles,measurement,setting,value
Cc1cc(-c2ccc(Cl)cc2)nn1-c1c(OC(=O)c2cccc(Cl)c2)cnn(C)c1=O [Compound 32],"Plant response rating, Itchgrass",[1]; 8 g ai/ha,30
same,"Plant response rating, Itchgrass",[1]; 16 g ai/ha,75
same,"Plant response rating, Itchgrass",[1]; 31 g ai/ha,90
same,"Plant response rating, Itchgrass",[1]; 62 g ai/ha,90
same,"Plant response rating, Groundsel",[2]; 8 g ai/ha,0
same,"Plant response rating, Groundsel",[2]; 16 g ai/ha,0
same,"Plant response rating, Groundsel",[2]; 31 g ai/ha,0
same,"Plant response rating, Groundsel",[2]; 62 g ai/ha,0
same,"Plant response rating, Mustard, Black",[3]; 8 g ai/ha,0
same,"Plant response rating, Mustard, Black",[3]; 16 g ai/ha,0
same,"Plant response rating, Mustard, Black",[3]; 31 g ai/ha,0
same,"Plant response rating, Mustard, Black",[3]; 62 g ai/ha,0
same,"Plant response rating, Crabgrass, Naked",[4]; 8 g ai/ha,60
same,"Plant response rating, Crabgrass, Naked",[4]; 31 g ai/ha,80
same,"Plant response rating, Crabgrass, Naked",[4]; 62 g ai/ha,90
same,"Plant response rating, Bermudagrass",[5]; 8 g ai/ha,5
same,"Plant response rating, Bermudagrass",[5]; 16 g ai/ha,20
same,"Plant response rating, Bermudagrass",[5]; 31 g ai/ha,40
same,"Plant response rating, Bermudagrass",[5]; 62 g ai/ha,75
same,"Plant response rating, Nutsedge, Purple",[6]; 8 g ai/ha,0
same,"Plant response rating, Nutsedge, Purple",[6]; 16 g ai/ha,0
same,"Plant response rating, Nutsedge, Purple",[6]; 31 g ai/ha,0
same,"Plant response rating, Nutsedge, Purple",[6]; 62 g ai/ha,0
same,"Plant response rating, Purslane",[7]; 8 g ai/ha,0
same,"Plant response rating, Purslane",[7]; 16 g ai/ha,0
same,"Plant response rating, Purslane",[7]; 31 g ai/ha,0
same,"Plant response rating, Purslane",[7]; 62 g ai/ha,0
same,"Plant response rating, Goosegrass",[8]; 8 g ai/ha,35
same,"Plant response rating, Goosegrass",[8]; 16 g ai/ha,35
same,"Plant response rating, Goosegrass",[8]; 31 g ai/ha,60
same,"Plant response rating, Goosegrass",[8]; 62 g ai/ha,80
same,"Plant response rating, Sandbur, S.",[9]; 8 g ai/ha,60
same,"Plant response rating, Sandbur, S.",[9]; 16 g ai/ha,75
same,"Plant response rating, Sandbur, S.",[9]; 31 g ai/ha,80
same,"Plant response rating, Sandbur, S.",[9]; 62 g ai/ha,80
same,"Plant response rating, Bluegrass",[10]; 8 g ai/ha,0
same,"Plant response rating, Bluegrass",[10]; 16 g ai/ha,0
same,"Plant response rating, Bluegrass",[10]; 31 g ai/ha,0
same,"Plant response rating, Bluegrass",[10]; 62 g ai/ha,0
same,"Plant response rating, Wheat, Spring",[11]; [13],0
same,"Plant response rating, Wheat, Spring",[11]; [14],25
same,"Plant response rating, Wheat, Spring",[11]; [15],60
same,"Plant response rating, Wheat, Spring",[11]; [16],98
same,"Plant response rating, Pigweed",[12]; [13],0
same,"Plant response rating, Pigweed",[12]; [14],0
same,"Plant response rating, Pigweed",[12]; [15],0
same,"Plant response rating, Pigweed",[12]; [16],0
